Assay results from US8952024B2, “Herbicidal pyrimidone derivatives” (E I du Pont de Nemours and Company, priority 2009, dated 2015).

Tests used:
Type in all cases: in vivo
[1] = tested on: giant foxtail (Setaria faberii); test: Test B pre-/postemergence plant response
Description: (§1) Seeds of plant species selected from blackgrass (Alopecurus myosuroides), downy bromegrass (Bromus tectorum), green foxtail (Setaria viridis), Italian ryegrass (Lolium multiflorum), wheat (Triticum aestivum), wild oat (Avena fatua), deadnettle (henbit deadnettle, Lamium amplexicaule), galium (catchweed bedstraw, Galium aparine), bermudagrass (Cynodon dactylon), Surinam grass (Brachiaria decumbens), cocklebur (Xanthium strumarium), corn (Zea mays), large crabgrass (Digitaria sanguinalis), woolly cupgrass (Eriochloa villosa), giant foxtail (Setaria faberii), goosegrass (Eleusine indica), johnsongrass (Sorghum halepense), kochia (Kochia scoparia), lambsquarters (Chenopodium album), morningglory (Ipomoea coccinea), nightshade (eastern black nightshade, Solanum ptycanthum), yellow nutsedge (Cyperus esculentus), pigweed (Amaranthus retroflexus), ragweed (common ragweed, Ambrosia elatior), Russian thistle (Salsola kali), soybean (Glycine max), sunflower (common oilseed sunflower, Helianthus annuus) and velvetleaf (Abutilon theophrasti) were planted into a blend of loam soil and sand and treated preemergence with test compounds formulated in a non-phytotoxic solvent mixture which included a surfactant.
(§2) At the same time, plants selected from these crop and weed species and also winter barley (Hordeum vulgare), canarygrass (Phalaris minor), chickweed (Stellaria media) and windgrass (Apera spica-venti) were planted in pots containing Redi-Earth® planting medium (Scotts Company, 14111 Scottslawn Road, Marysville, Ohio 43041) comprising spaghnum peat moss, vermiculite, wetting agent and starter nutrients and treated with postemergence applications of some of the test chemicals formulated in the same manner. Plants ranged in height from 2 to 18 cm (1- to 4-leaf stage) for postemergence treatments.
(§3) Treated plants and controls were maintained in a greenhouse for 13 to 15 days, after which time all treated plants were visually evaluated and compared to controls. Plant response ratings, summarized in Table B, are based on a scale of 0 to 100 where 0 is no effect and 100 is complete control. A dash (-) response means no test result.

[2] = tested on: velvetleaf (Abutilon theophrasti); test: Test B pre-/postemergence plant response; settings: for Plant response rating, Velvetleaf: Postemergence
Description: as §1, §2, §3

[3] = tested on: green foxtail (Setaria viridis); test: Test B pre-/postemergence plant response
Description: as §1, §2, §3

soybean (Glycine max) = test: Test B pre-/postemergence plant response; settings: for Plant response rating, Soybean: Postemergence
Description: as §1, §2, §3

corn (Zea mays) = test: Test B pre-/postemergence plant response
Description: as §1, §2, §3

[4] = tested on: lambsquarters (Chenopodium album); test: Test B pre-/postemergence plant response
Description: as §1, §2, §3

[5] = tested on: yellow nutsedge (Cyperus esculentus); test: Test B pre-/postemergence plant response
Description: as §1, §2, §3

[6] = tested on: pigweed (Amaranthus retroflexus); test: Test B pre-/postemergence plant response
Description: as §1, §2, §3

[7] = tested on: goosegrass (Eleusine indica); test: Test B pre-/postemergence plant response
Description: as §1, §2, §3

[8] = tested on: johnsongrass (Sorghum halepense); test: Test B pre-/postemergence plant response
Description: as §1, §2, §3

[9] = tested on: windgrass (Apera spica-venti); test: Test B postemergence plant response; settings: for Plant response rating, Windgrass: Postemergence
In short: (§4)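 Visual ratings from 0 (no effect) to 100 (complete control), made against controls 13–15 days after treatment, kept in a greenhouse. Compounds were applied postemergence to potted plants at the 1- to 4-leaf stage (2–18 cm).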

[10] = tested on: canarygrass (Phalaris minor); test: Test B postemergence plant response
In short: as §4

[11] = tested on: chickweed (Stellaria media); test: Test B postemergence plant response
In short: as §4

[12] = tested on: winter barley (Hordeum vulgare); test: Test B postemergence plant response
In short: as §4

[13] = 31 g ai/ha, postemergence, scale 0 to 100, 0 is no effect, 100 is complete control
[14] = 62 g ai/ha, postemergence, 0 is no effect, 100 is complete control, 13 to 15 days
[15] = Postemergence, 125 g ai/ha, scale 0 to 100 (0 no effect, 100 complete control)
[16] = Postemergence, 250 g ai/ha, scale 0 to 100 (0 no effect, 100 complete control)
[17] = 125 g ai/ha, scale 0 to 100 (0 no effect, 100 complete control)
[18] = 250 g ai/ha, scale 0 to 100 (0 no effect, 100 complete control)
[19] = Postemergence, 31 g ai/ha, 0 to 100 scale (0 no effect, 100 complete control)
[20] = Postemergence, 62 g ai/ha, scale 0 to 100 (0 no effect, 100 complete control)
[21] = Postemergence, 250 g ai/ha, scale 0 to 100 (0 no effect, 100 complete control), 13 to 15 days
[22] = 31 g ai/ha, 0 to 100 scale (0 no effect, 100 complete control)
[23] = 62 g ai/ha, scale 0 to 100 (0 no effect, 100 complete control)
[24] = 250 g ai/ha, scale 0 to 100 (0 no effect, 100 complete control), 13 to 15 days

In the case of `CCCCn1c(-c2cc(F)cc(F)c2)ncc(C(=O)C2=C(O)CCCC2=O)c1=O` [Compound 121], the “Plant response rating, Foxtail, Giant” value [1, 13] is reported as 95, the “Foxtail, Giant plant response rating (0 to 100 scale)” value [1, 14] is reported as 98 and the “Plant response rating, Foxtail, Giant” value [1, 15] is reported as 98. The “Plant response rating, Foxtail, Giant” value [1, 16] was 98, the “Velvetleaf plant response rating (0 to 100 scale)” value [2, 14] was 98 and the “Plant response rating, Velvetleaf” value [2, 17] was 100. For the same compound, the “Plant response rating, Velvetleaf” value [2, 18] was 100, the “Plant response rating, Foxtail, Green” value [3, 13] was 80 and the “Foxtail, Green plant response rating (0 to 100 scale)” value [3, 14] was 90. For the same compound, the “Plant response rating, Foxtail, Green” value [3, 15] was 100, the “Plant response rating, Foxtail, Green” value [3, 16] was 100 and the “Soybean plant response rating (0 to 100 scale)” value (soybean (Glycine max); [14]) was 90. The “Plant response rating, Soybean” value (soybean (Glycine max); [17]) was 95, the “Plant response rating, Soybean” value (soybean (Glycine max); [18]) was 100 and the “Plant response rating, Corn” value (corn (Zea mays); [13]) was 25. For the same compound, the “Corn plant response rating (0 to 100 scale)” value (corn (Zea mays); [14]) was 55, the “Plant response rating, Corn” value (corn (Zea mays); [15]) was 55 and the “Plant response rating, Corn” value (corn (Zea mays); [16]) was 85. The “Plant response rating, Lambsquarters” value [4, 13] was 95, the “Lambsquarters plant response rating (0 to 100 scale)” value [4, 14] was 100 and the “Plant response rating, Lambsquarters” value [4, 15] was 100. The “Plant response rating, Lambsquarters” value [4, 16] was 100, the “Plant response rating, Nutsedge, Yellow” value [5, 13] was 5 and the “Nutsedge, Yellow plant response rating (0 to 100 scale)” value [5, 14] was 45. For the same compound, the “Plant response rating, Nutsedge, Yellow” value [5, 15] was 45, the “Plant response rating, Nutsedge, Yellow” value [5, 16] was 50 and the “Plant response rating, Pigweed” value [6, 13] was 100. The “Pigweed plant response rating (0 to 100 scale)” value [6, 14] was 100, the “Plant response rating, Pigweed” value [6, 15] was 100 and the “Plant response rating, Pigweed” value [6, 16] was 100. For the same compound, the “Plant response rating, Goosegrass” value [7, 13] was 95, the “Goosegrass plant response rating (0 to 100 scale)” value [7, 14] was 98 and the “Plant response rating, Goosegrass” value [7, 15] was 98. For the same compound, the “Plant response rating, Goosegrass” value [7, 16] was 98, the “Plant response rating, Johnsongrass” value [8, 13] was 20 and the “Johnsongrass plant response rating (0 to 100 scale)” value [8, 14] was 70. The “Plant response rating, Johnsongrass” value [8, 16] was 85, the “Windgrass plant response rating (0 to 100 scale)” value [9, 14] was 98 and the “Plant response rating, Windgrass” value [9, 17] was 100. For the same compound, the “Plant response rating, Canarygrass” value [10, 13] was 0, the “Canarygrass plant response rating (0 to 100 scale)” value [10, 14] was 5 and the “Plant response rating, Canarygrass” value [10, 15] was 5. For the same compound, the “Plant response rating, Canarygrass” value [10, 16] was 30, the “Plant response rating, Chickweed” value [11, 13] was 100 and the “Chickweed plant response rating (0 to 100 scale)” value [11, 14] was 100. The “Plant response rating, Chickweed” value [11, 15] was 100, the “Plant response rating, Chickweed” value [11, 16] was 100 and the “Plant response rating, Barley” value [12, 13] was 0. The “Barley plant response rating (0 to 100 scale)” value [12, 14] was 5, the “Plant response rating, Barley” value [12, 15] was 5 and the “Plant response rating, Barley” value [12, 16] was 10.
With `O=C1CCCC(O)=C1C(=O)c1cnc(-c2ccc(F)cc2)n(C2CCCCC2)c1=O` [Compound 197] the “Plant response rating, Foxtail, Giant” value [1, 19] was 85, the “Plant response rating, Foxtail, Giant” value [1, 20] was 95 and the “Plant response rating, Foxtail, Giant” value [1, 15] was 98. The “Plant response rating, Foxtail, Giant” value [1, 21] was 100, the “Plant response rating, Velvetleaf” value [2, 22] was 80 and the “Plant response rating, Velvetleaf” value [2, 23] was 80. The “Plant response rating, Velvetleaf” value [2, 24] was 100, the “Plant response rating, Foxtail, Green” value [3, 19] was 5 and the “Plant response rating, Foxtail, Green” value [3, 20] was 30. The “Plant response rating, Foxtail, Green” value [3, 15] was 50, the “Plant response rating, Foxtail, Green” value [3, 21] was 70 and the “Plant response rating, Soybean” value (soybean (Glycine max); [22]) was 98. The “Plant response rating, Soybean” value (soybean (Glycine max); [23]) was 100, the “Plant response rating, Soybean” value (soybean (Glycine max); [24]) was 100 and the “Plant response rating, Corn” value (corn (Zea mays); [19]) was 15. For the same compound, the “Plant response rating, Corn” value (corn (Zea mays); [20]) was 35, the “Plant response rating, Corn” value (corn (Zea mays); [15]) was 45 and the “Plant response rating, Corn” value (corn (Zea mays); [21]) was 65. For the same compound, the “Plant response rating, Lambsquarters” value [4, 19] was 95, the “Plant response rating, Lambsquarters” value [4, 20] was 100 and the “Plant response rating, Lambsquarters” value [4, 15] was 100. For the same compound, the “Plant response rating, Lambsquarters” value [4, 21] was 100, the “Plant response rating, Nutsedge, Yellow” value [5, 19] was 45 and the “Plant response rating, Nutsedge, Yellow” value [5, 20] was 55. The “Plant response rating, Nutsedge, Yellow” value [5, 15] was 65, the “Plant response rating, Nutsedge, Yellow” value [5, 21] was 75 and the “Plant response rating, Pigweed” value [6, 19] was 80. For the same compound, the “Plant response rating, Pigweed” value [6, 20] was 90, the “Plant response rating, Pigweed” value [6, 21] was 100 and the “Plant response rating, Goosegrass” value [7, 19] was 85. The “Plant response rating, Goosegrass” value [7, 20] was 98, the “Plant response rating, Goosegrass” value [7, 15] was 100 and the “Plant response rating, Goosegrass” value [7, 21] was 100. For the same compound, the “Plant response rating, Johnsongrass” value [8, 19] was 70, the “Plant response rating, Johnsongrass” value [8, 20] was 85 and the “Plant response rating, Johnsongrass” value [8, 15] was 95. For the same compound, the “Plant response rating, Johnsongrass” value [8, 21] was 100, the “Plant response rating, Windgrass” value [9, 22] was 10 and the “Plant response rating, Windgrass” value [9, 23] was 50. The “Plant response rating, Windgrass” value [9, 24] was 98, the “Plant response rating, Canarygrass” value [10, 19] was 5 and the “Plant response rating, Canarygrass” value [10, 20] was 30. For the same compound, the “Plant response rating, Canarygrass” value [10, 15] was 40, the “Plant response rating, Canarygrass” value [10, 21] was 60 and the “Plant response rating, Chickweed” value [11, 19] was 100. For the same compound, the “Plant response rating, Chickweed” value [11, 20] was 100, the “Plant response rating, Chickweed” value [11, 15] was 100 and the “Plant response rating, Chickweed” value [11, 21] was 100. The “Plant response rating, Barley” value [12, 19] was 0, the “Plant response rating, Barley” value [12, 20] was 5 and the “Plant response rating, Barley” value [12, 15] was 10. The “Plant response rating, Barley” value [12, 21] was 40.
